What was measured:
5-HT2C receptor = molecular target: T1, 5-HT2C receptor (Homo sapiens, UniProt P28335); assay: radioligand ([3H]mesulergine) competitive binding assay for 5-HT2C receptor; settings: choroid plexus or recombinant 5-HT2C receptor expressed in CHO-K1 cells; for IC50: read-out: binding affinity to 5-HT2C serotonin receptor expressed as IC50 value; for Ki: read-out: binding affinity to 5-HT2C serotonin receptor, Ki value
T1 construct: expressed in transfected cells; host or cells: CHO-K1 (or COS-7)
T1 sequence (P28335 33-458): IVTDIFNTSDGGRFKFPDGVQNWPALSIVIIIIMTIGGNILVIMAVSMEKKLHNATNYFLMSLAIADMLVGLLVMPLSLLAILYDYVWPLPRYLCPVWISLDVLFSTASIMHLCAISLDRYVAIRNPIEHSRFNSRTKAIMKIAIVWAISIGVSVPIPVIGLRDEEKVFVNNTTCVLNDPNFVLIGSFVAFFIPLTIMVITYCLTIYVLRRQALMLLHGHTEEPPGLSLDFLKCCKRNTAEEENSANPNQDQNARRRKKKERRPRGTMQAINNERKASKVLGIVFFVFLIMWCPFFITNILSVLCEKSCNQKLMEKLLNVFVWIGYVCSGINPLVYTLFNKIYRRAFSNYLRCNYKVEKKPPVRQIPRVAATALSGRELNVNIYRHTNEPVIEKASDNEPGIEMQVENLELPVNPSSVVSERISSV
Description: (§1) The effect of the compounds of the present invention on the neurochemical steady state was determined by in vitro investigations such as a radionuclide-marked radioligand binding assay for 5-HT2A (Bonhaus D. W. Br. J. Pharmacol. 1995, 115:622; Saucier C. J. Neurochem. 1997, 68:1998) and 5-HT2C receptors (Wolf W. A. J. Neurochem. 1997, 69:1449), in vitro binding assay for σ1 receptor (Thomson W. and Donn R. Arthritis Res. 2002, 4: 302-306) and by in vivo investigations in a tail suspension test (Vogel H. G. and Vogel W. H. Drug Discovery and Evaluation Pharmacological Assays, Springer 1997, 304), in amphethamine-induced hyperlocomotion in mice (Millan M. J. et al, 1998 J. Pharmacol. Exp. Ther. 287: 167-186), in a forced swim test in mice (Porsolt R. D. et al. Arch. Int. Pharmacodyn. 1977, 229:327-336), in meta-chlorophenyl piperazine (m-CPP) test on rats (Drug Dev. Res. 1989, 18:119-144), and in apomorphine, tryptamine, norepinephrine (ATN) test in rats (Arch. Int. Pharmacodyn. 1977, 227:238-253).
(§2) In Vitro Method for Determining Affinity for Binding to 5-HT2A and 5-HT2C Receptors
(§3) A small concentration of a radioligand having a great affinity for binding to a receptor was incubated with a tissue sample enriched with a certain receptor (1-5 mg of tissue) in a buffered medium (0.2-5 mL). Recombinant human HT2A and HT2C receptors were expressed in CHO-K1 or COS-7 cells and were also used for competitive binding. During incubation the radioligand bound to the receptor. When a binding balance was achieved, the receptors to which the radioligand was bound were separated from those to which said ligand was not bound, and the radioactivity of the receptor/radioligand complex was measured. The interaction of the tested compounds with receptors was tested in competitive binding experiments. Various concentrations of tested compounds were added to the incubation mixture containing a prepared tissue enriched with corresponding receptors and the radioligand. The radioligand binding was inhibited by the test compounds proportionally to the affinity of a certain compound for the receptor and to the concentration of the compound.
The radioligand used for the determination of binding to 5-HT2C receptor was [^3H]mesulergine and the tissue used was choroid plexus or recombinant 5-HT2C receptor expressed in CHO-K1 cells.

5-HT2A receptor = molecular target: T2, 5-HT2A receptor (Homo sapiens, UniProt P28223); assay: radioligand ([3H]-ketanserin) competitive binding assay for 5-HT2A receptor; settings: for IC50: human cortex or recombinant 5-HT2A receptor expressed in CHO-K1, read-out: binding affinity to 5-HT2A serotonin receptor expressed as IC50 value; for Ki: human cortex or recombinant 5-HT2A receptor expressed in CHO-K1, read-out: binding affinity to 5-HT2A serotonin receptor, Ki value
T2 construct: expressed in transfected cells; host or cells: CHO-K1 (or COS-7)
Description: as §1, §2, §3
The radioligand used for the determination of binding to 5-HT2A receptor was [^3H]-ketanserin and the tissue used was human cortex or recombinant 5-HT2A receptor expressed in CHO-K1.

T2 sequence (P28223 whole entry): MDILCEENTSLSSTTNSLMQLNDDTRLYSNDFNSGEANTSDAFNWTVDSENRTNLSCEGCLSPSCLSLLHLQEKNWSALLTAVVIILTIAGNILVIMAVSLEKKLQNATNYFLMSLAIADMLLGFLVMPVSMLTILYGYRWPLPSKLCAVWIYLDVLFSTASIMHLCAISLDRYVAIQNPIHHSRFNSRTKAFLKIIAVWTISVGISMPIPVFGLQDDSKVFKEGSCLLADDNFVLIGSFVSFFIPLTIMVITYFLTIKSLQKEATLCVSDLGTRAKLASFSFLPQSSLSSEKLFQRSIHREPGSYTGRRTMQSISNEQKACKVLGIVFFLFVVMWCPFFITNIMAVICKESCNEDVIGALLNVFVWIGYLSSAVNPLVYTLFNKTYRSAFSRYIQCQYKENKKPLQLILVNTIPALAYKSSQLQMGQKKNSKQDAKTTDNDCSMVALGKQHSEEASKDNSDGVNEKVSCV

| IC50 (5-HT2C receptor) [nM] | Ki (5-HT2C receptor) [nM] | IC50 (5-HT2A receptor) [nM] | Ki (5-HT2A receptor) [nM] | Compound |
| --- | --- | --- | --- | --- |
| < 200 | < 100 | < 200 | < 100 | Cc1onc2c1-c1ccccc1Sc1ccccc1-2 [Compound 1, 3-Methyl-2-oxa-8-thia-1-aza-dibenzo[e,h]azulene] |
| < 200 | < 100 | < 200 | < 100 | CN(C)CCCOCc1onc2c1-c1ccccc1Sc1ccccc1-2 [Compound 7, Dimethyl-[3-(2-oxa-8-thia-1-aza-dibenzo[e,h]azulen-3-ylmethoxy)-propyl]-amine] |

— patent US20070078124A1, “1-Aza-2-oxa-dibenzo(e,h)azulenes and their use for the treatment of central nervous system diseases and disorders” (PLIVA-ISTRAZIVACKI INSTITUT D.O.O., priority 2003, published 2007)
